Results reported in paper PMC7504770, “Mechanistic Insights into the Chaperoning of Human Lysosomal-Galactosidase Activity: Highly Functionalized Aminocyclopentanes and C-5a-Substituted Derivatives of 4-epi-Isofagomine” (Molecules, 2020).

Tests used:
[1] = molecular target: T1, Fabrazyme = commercial recombinant lysosomal α-galactosidase (GH27) (Homo sapiens, UniProt P06280); details: read-out: Ki Fabrazyme (α-Gal) (GH27); cited from earlier work
T1 construct: purchased
T1 sequence (P06280 32-429): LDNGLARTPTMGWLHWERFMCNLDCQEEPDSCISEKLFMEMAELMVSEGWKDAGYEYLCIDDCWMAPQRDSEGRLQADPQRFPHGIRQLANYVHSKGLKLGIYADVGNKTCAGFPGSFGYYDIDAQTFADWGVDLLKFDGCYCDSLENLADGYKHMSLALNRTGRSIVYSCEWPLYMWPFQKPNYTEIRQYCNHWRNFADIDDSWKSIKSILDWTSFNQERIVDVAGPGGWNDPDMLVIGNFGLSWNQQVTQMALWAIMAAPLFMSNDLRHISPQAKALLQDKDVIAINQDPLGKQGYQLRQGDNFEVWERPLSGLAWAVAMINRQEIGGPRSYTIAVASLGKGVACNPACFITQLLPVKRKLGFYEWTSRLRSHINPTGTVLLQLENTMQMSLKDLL

[2] = molecular target: T2, recombinant human lysosomal β-glucocerebrosidase (GCase, GH30) (Homo sapiens, UniProt P04062); details: read-out: Ki GCase (β-Glc) (GH30); cited from earlier work
T2 sequence (P04062 40-536): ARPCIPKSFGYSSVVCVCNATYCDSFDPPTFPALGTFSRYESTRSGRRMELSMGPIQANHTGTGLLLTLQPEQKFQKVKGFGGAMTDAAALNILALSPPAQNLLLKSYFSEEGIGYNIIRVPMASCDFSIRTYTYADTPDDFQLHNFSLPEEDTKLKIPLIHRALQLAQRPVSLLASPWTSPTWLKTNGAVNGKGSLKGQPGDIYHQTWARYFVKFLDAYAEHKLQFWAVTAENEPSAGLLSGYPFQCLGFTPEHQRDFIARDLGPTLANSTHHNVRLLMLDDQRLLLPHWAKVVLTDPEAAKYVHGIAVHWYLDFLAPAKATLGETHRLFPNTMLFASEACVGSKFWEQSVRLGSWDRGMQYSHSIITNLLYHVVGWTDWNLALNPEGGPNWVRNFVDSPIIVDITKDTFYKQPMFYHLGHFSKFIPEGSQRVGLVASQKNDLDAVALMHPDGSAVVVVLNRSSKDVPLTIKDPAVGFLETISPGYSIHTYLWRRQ

[3] = system: human skin fibroblasts (R201C); assay: Cell viability and growth of treated fibroblasts; type: cell-based; details: for cell growth at higher concentrations: concentrations higher than 10 µM, over the incubation time; for cell viability at more than 100 µM: concentrations of more than 100 µM; for influence on cell viability: incubation of the cells up to 10 µM
Experimental: Cell lines from one GM1-Gangliosidosis-patient (R201C) and one WT, were exposed to compounds 22, 31, and 37, for evaluation of their chaperone effects.
Human skin fibroblasts were grown in minimal essential medium (MEM) with Earle’s Salts (Sigma Aldrich, St. Louis, MO, USA) containing 10% fetal bovine serum, 400 µM L-glutamine, and 50 µg/mL gentamycin at 37 °C and 5% CO2. All cells used in this study were between the third and nineteenth passages.
Fibroblasts were grown to semi-confluency in 6-well plates. Particular chaperone was added to the culture medium at following concentrations: 100–0.02 µmol. Cells were incubated for four additional days at 37 °C. Cells were harvested by scraping and prepared for β-galactosidase and β-hexosaminidase assays as described above.

Row | SMILES | Ki [1] [µM] | Ki [2] [µM] | cell growth at higher concentrations [3] | cell viability at more than 100 µM [3] | influence on cell viability [3]
1 | CN(C)c1cccc2c(S(=O)(=O)NCCCCCC[C@@H]3NC[C@@H](O)[C@@H](O)[C@H]3CO)cccc12 [Compound 14] | > 1000 | 1.2 |  |  | 
2 | CN(C)c1cccc2c(S(=O)(=O)NCCCCCCN[C@H]3[C@H](O)[C@@H](O)[C@@H](O)[C@H]3CO)cccc12 [Compound 17] | 238 | 0.0193 |  |  | 
3 | CN(C)c1cccc2c(S(=O)(=O)NCCCCCCN[C@H]3C[C@@H](O)[C@@H](O)[C@H]3CO)cccc12 [Compound 31, (1R,2S,3R,4S)-3-Hydroxymethyl-4-(6′-dansylaminohexylamino)cyclopentane-1,2-diol] |  |  | complete arrest of cell growth | dramatic loss | no notable influence
4 | CN(C)c1cccc2c(S(=O)(=O)NCCCCCCN[C@H]3[C@H](F)[C@@H](O)[C@@H](O)[C@H]3CO)cccc12 [Compound 37, (1S,2S,3S,4R,5R)-4-(6′-Dansylaminohexyl)amino-3-fluoro-5-hydroxymethylcyclopentane-1,2-diol] |  |  | complete arrest of cell growth | dramatic loss | no notable influence
